According to the supplement of paper PMC10883282:

Key:
Experiment in all cases: relative viability vs DMSO control (72 h) (fraction); higher = more viable cells
RD-ES = test system: RD-ES
In short: (§1)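 After seeding at densities set for 80–90% confluence in 384-well plates, sarcoma cell lines waited 24 h before 2.5 µl of serially diluted compound was added. Source plates held 10 mM down to 0.0002 mM. Plates were incubated 72 h at 37 °C with 5% CO2, with 0.1% DMSO vehicle and a 5 µM positive control, and relative viability was taken from ATPLite as percent growth averaged over up to triplicate wells, with 1 set as full and 0 as none.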

SYO-1 = test system: SYO-1
In short: as §1

SK-ES-1 = test system: SK-ES-1
In short: as §1

G401 = test system: G401
In short: as §1

VA-ES-BJ = test system: VA-ES-BJ
In short: as §1

KHOS-240S = test system: KHOS-240S
In short: as §1

HT1080 = test system: HT1080
In short: as §1

RD = test system: RD
In short: as §1

SW982 = test system: SW982
In short: as §1

SW1353 = test system: SW1353
In short: as §1

SK-LMS-1 = test system: SK-LMS-1
In short: as §1

MES-SA = test system: MES-SA
In short: as §1

CC1(COc2ccc3c(c2)ncn3-c2ccc3cccc(N4CCC(N)CC4)c3n2)COC1 [Crenolanib]
Conditions	relative viability
G401, 0.00017 µM	0.968
G401, 0.00051 µM	0.935
G401, 0.00152 µM	0.951
G401, 0.00457 µM	0.942
G401, 0.01372 µM	0.955
G401, 0.04115 µM	0.981
G401, 0.1235 µM	0.972
G401, 0.3704 µM	0.99
G401, 1.111 µM	0.95
G401, 3.333 µM	0.934
G401, 10 µM	0.0201
HT1080, 0.00017 µM	1.01
HT1080, 0.00051 µM	1.03
HT1080, 0.00152 µM	1.04
HT1080, 0.00457 µM	1.03
HT1080, 0.01372 µM	1.02
HT1080, 0.04115 µM	1.02
HT1080, 0.1235 µM	1.02
HT1080, 0.3704 µM	1.05
HT1080, 1.111 µM	1.04
HT1080, 3.333 µM	0.811
HT1080, 10 µM	0.0545
KHOS-240S, 0.00017 µM	0.97
KHOS-240S, 0.00051 µM	0.957
KHOS-240S, 0.00152 µM	1.01
KHOS-240S, 0.00457 µM	1.02
KHOS-240S, 0.01372 µM	1.01
KHOS-240S, 0.04115 µM	1.023
KHOS-240S, 0.1235 µM	0.986
KHOS-240S, 0.3704 µM	0.963
KHOS-240S, 1.111 µM	0.844
KHOS-240S, 3.333 µM	0.476
KHOS-240S, 10 µM	0.134
MES-SA, 0.00017 µM	0.919
MES-SA, 0.00051 µM	0.919
MES-SA, 0.00152 µM	0.9274
MES-SA, 0.00457 µM	0.971
MES-SA, 0.01372 µM	0.9531
MES-SA, 0.04115 µM	0.94
MES-SA, 0.1235 µM	0.98
MES-SA, 0.3704 µM	1.05
MES-SA, 1.111 µM	1.03
MES-SA, 3.333 µM	0.475
MES-SA, 10 µM	0.0499
RD, 0.00017 µM	1.02
RD, 0.00051 µM	1.05
RD, 0.00152 µM	1.04
RD, 0.00457 µM	1.05
RD, 0.01372 µM	1.07
RD, 0.04115 µM	1.05
RD, 0.1235 µM	1.06
RD, 0.3704 µM	1.1
RD, 1.111 µM	1.11
RD, 3.333 µM	0.955
RD, 10 µM	0.02007
RD-ES, 0.00017 µM	0.949
RD-ES, 0.00051 µM	0.958
RD-ES, 0.00152 µM	0.957
RD-ES, 0.00457 µM	0.975
RD-ES, 0.01372 µM	0.958
RD-ES, 0.04115 µM	0.969
RD-ES, 0.1235 µM	0.97
RD-ES, 0.3704 µM	0.994
RD-ES, 1.111 µM	0.915
RD-ES, 3.333 µM	0.359
RD-ES, 10 µM	0.255
SK-ES-1, 0.00017 µM	0.997
SK-ES-1, 0.00051 µM	0.993
SK-ES-1, 0.00152 µM	1.01
SK-ES-1, 0.00457 µM	1.05
SK-ES-1, 0.01372 µM	1.02
SK-ES-1, 0.04115 µM	1.02
SK-ES-1, 0.1235 µM	1.014
SK-ES-1, 0.3704 µM	0.949
SK-ES-1, 1.111 µM	0.675
SK-ES-1, 3.333 µM	0.188
SK-ES-1, 10 µM	0.0214
SK-LMS-1, 0.00017 µM	0.98
SK-LMS-1, 0.00051 µM	1.05
SK-LMS-1, 0.00152 µM	1.036
SK-LMS-1, 0.00457 µM	1.04
SK-LMS-1, 0.01372 µM	1.03
SK-LMS-1, 0.04115 µM	1.03
SK-LMS-1, 0.1235 µM	1.07
SK-LMS-1, 0.3704 µM	1.02
SK-LMS-1, 1.111 µM	0.967
SK-LMS-1, 3.333 µM	0.8
SK-LMS-1, 10 µM	0.0424
SW982, 0.00017 µM	0.937
SW982, 0.00051 µM	0.9575
SW982, 0.00152 µM	0.947
SW982, 0.00457 µM	0.974
SW982, 0.01372 µM	0.965
SW982, 0.04115 µM	0.971
SW982, 0.1235 µM	0.969
SW982, 0.3704 µM	0.952
SW982, 1.111 µM	0.679
SW982, 3.333 µM	0.352
SW982, 10 µM	0.0115
SW1353, 0.00017 µM	0.968
SW1353, 0.00051 µM	0.959
SW1353, 0.00152 µM	0.938
SW1353, 0.00457 µM	0.97
SW1353, 0.01372 µM	0.949
SW1353, 0.04115 µM	0.917
SW1353, 0.1235 µM	0.92
SW1353, 0.3704 µM	0.84
SW1353, 1.111 µM	0.813
SW1353, 3.333 µM	0.683
SW1353, 10 µM	0.009
SYO-1, 0.00017 µM	0.974
SYO-1, 0.00051 µM	0.983
SYO-1, 0.00152 µM	0.996
SYO-1, 0.00457 µM	0.998
SYO-1, 0.01372 µM	0.953
SYO-1, 0.04115 µM	0.867
SYO-1, 0.1235 µM	0.785
SYO-1, 0.3704 µM	0.787
SYO-1, 1.111 µM	0.659
SYO-1, 3.333 µM	0.307
SYO-1, 10 µM	-0.023
VA-ES-BJ, 0.00017 µM	1.03
VA-ES-BJ, 0.00051 µM	1.02
VA-ES-BJ, 0.00152 µM	1.04
VA-ES-BJ, 0.00457 µM	1.04
VA-ES-BJ, 0.01372 µM	1.05
VA-ES-BJ, 0.04115 µM	1.08
VA-ES-BJ, 0.1235 µM	1.09
VA-ES-BJ, 0.3704 µM	1.11
VA-ES-BJ, 1.111 µM	0.961
VA-ES-BJ, 3.333 µM	0.466
VA-ES-BJ, 10 µM	0.108
